{
  "source": "PubChem BioAssay (NCI)",
  "test_in_all_cases": "DTP human tumour cell line panel, 48 h",
  "key": {"[1]": {"test_system": "OVCAR-3 ovarian"}, "[2]": {"test_system": "UO-31 renal"}, "[3]": {"test_system": "CAKI-1 renal"}, "[4]": {"test_system": "SF-539 CNS"}, "[5]": {"test_system": "TK-10 renal"}, "[6]": {"test_system": "NCI/ADR-RES ovarian"}, "[7]": {"test_system": "UACC-257 melanoma"}, "[8]": {"test_system": "A498 renal"}, "[9]": {"test_system": "RPMI-8226 leukemia"}, "[10]": {"test_system": "LOX IMVI melanoma"}, "[11]": {"test_system": "T-47D breast"}, "[12]": {"test_system": "MOLT-4 leukemia"}, "[13]": {"test_system": "SF-295 CNS"}, "[14]": {"test_system": "MCF7 breast"}, "[15]": {"test_system": "M14 melanoma"}, "[16]": {"test_system": "COLO 205 colon"}, "[17]": {"test_system": "SW-620 colon"}, "[18]": {"test_system": "MDA-N"}, "[19]": {"test_system": "RXF 393 renal"}, "[20]": {"test_system": "OVCAR-8 ovarian"}, "[21]": {"test_system": "HCT-116 colon"}, "[22]": {"test_system": "NCI-H226 lung"}, "[23]": {"test_system": "KM12 colon"}, "[24]": {"test_system": "HT29 colon"}, "[25]": {"test_system": "SNB-75 CNS"}, "[26]": {"test_system": "UACC-62 melanoma"}, "[27]": {"test_system": "786-0 renal"}, "[28]": {"test_system": "CCRF-CEM leukemia"}, "[29]": {"test_system": "SN12C renal"}, "[30]": {"test_system": "PC-3 prostate"}, "[31]": {"test_system": "BT-549 breast"}, "[32]": {"test_system": "HL-60(TB) leukemia"}, "[33]": {"test_system": "HS 578T breast"}, "[34]": {"test_system": "SK-MEL-5 melanoma"}, "[35]": {"test_system": "OVCAR-4 ovarian"}, "[36]": {"test_system": "DU-145 prostate"}, "[37]": {"test_system": "SR leukemia"}, "[38]": {"test_system": "IGROV1 ovarian"}, "[39]": {"test_system": "NCI-H23 lung"}, "[40]": {"test_system": "MDA-MB-435"}, "[41]": {"test_system": "EKVX NSCLC"}, "[42]": {"test_system": "OVCAR-5 ovarian"}, "[43]": {"test_system": "A549 NSCLC"}, "[44]": {"test_system": "SF-268 CNS"}, "[45]": {"test_system": "MDA-MB-231 breast"}, "[46]": {"test_system": "HOP-62 NSCLC"}, "[47]": {"test_system": "K-562 leukemia"}, "[48]": {"test_system": "NCI-H460 lung"}, "[49]": {"test_system": "HOP-92 NSCLC"}, "[50]": {"test_system": "HCC-2998 colon"}, "[51]": {"test_system": "NCI-H522 lung"}, "[52]": {"test_system": "SK-MEL-2 melanoma"}},
  "note": "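Cells were grown in 96-well plates and exposed to each compound for 48 hours at five concentrations; endpoints were interpolated linearly between bracketing concentrations, or set to the highest concentration if not reached. TGI is the concentration that stops growth completely.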",
  "data": [
    {"molecule": "Cc1ccnc2c1ccc1nc3ccccc3n12", "values": [
      {"measurement": "TGI", "setting": "[1]", "value": "> 100", "unit": "µM"},
      {"measurement": "TGI", "setting": "[2]", "value": "> 100", "unit": "µM"},
      {"measurement": "TGI", "setting": "[3]", "value": "> 100", "unit": "µM"},
      {"measurement": "TGI", "setting": "[4]", "value": "> 100", "unit": "µM"},
      {"measurement": "TGI", "setting": "[5]", "value": "> 100", "unit": "µM"},
      {"measurement": "TGI", "setting": "[6]", "value": "> 100", "unit": "µM"},
      {"measurement": "TGI", "setting": "[7]", "value": "> 100", "unit": "µM"},
      {"measurement": "TGI", "setting": "[8]", "value": "> 100", "unit": "µM"},
      {"measurement": "TGI", "setting": "[9]", "value": "> 100", "unit": "µM"},
      {"measurement": "TGI", "setting": "[10]", "value": "> 100", "unit": "µM"},
      {"measurement": "TGI", "setting": "[11]", "value": "> 100", "unit": "µM"},
      {"measurement": "TGI", "setting": "[12]", "value": "> 100", "unit": "µM"},
      {"measurement": "TGI", "setting": "[13]", "value": "> 100", "unit": "µM"},
      {"measurement": "TGI", "setting": "[14]", "value": "> 100", "unit": "µM"},
      {"measurement": "TGI", "setting": "[15]", "value": "> 100", "unit": "µM"},
      {"measurement": "TGI", "setting": "[16]", "value": "> 100", "unit": "µM"},
      {"measurement": "TGI", "setting": "[17]", "value": "> 100", "unit": "µM"},
      {"measurement": "TGI", "setting": "[18]", "value": "> 100", "unit": "µM"},
      {"measurement": "TGI", "setting": "[19]", "value": "> 100", "unit": "µM"},
      {"measurement": "TGI", "setting": "[20]", "value": 92.4, "unit": "µM"},
      {"measurement": "TGI", "setting": "[21]", "value": "> 100", "unit": "µM"},
      {"measurement": "TGI", "setting": "[22]", "value": "> 100", "unit": "µM"},
      {"measurement": "TGI", "setting": "[23]", "value": "> 100", "unit": "µM"},
      {"measurement": "TGI", "setting": "[24]", "value": "> 100", "unit": "µM"},
      {"measurement": "TGI", "setting": "[25]", "value": "> 100", "unit": "µM"},
      {"measurement": "TGI", "setting": "[26]", "value": "> 100", "unit": "µM"},
      {"measurement": "TGI", "setting": "[27]", "value": "> 100", "unit": "µM"},
      {"measurement": "TGI", "setting": "[28]", "value": "> 100", "unit": "µM"},
      {"measurement": "TGI", "setting": "[29]", "value": "> 100", "unit": "µM"},
      {"measurement": "TGI", "setting": "[30]", "value": "> 100", "unit": "µM"},
      {"measurement": "TGI", "setting": "[31]", "value": "> 100", "unit": "µM"},
      {"measurement": "TGI", "setting": "[32]", "value": "> 100", "unit": "µM"},
      {"measurement": "TGI", "setting": "[33]", "value": "> 100", "unit": "µM"},
      {"measurement": "TGI", "setting": "[34]", "value": 93.1, "unit": "µM"},
      {"measurement": "TGI", "setting": "[35]", "value": "> 100", "unit": "µM"},
      {"measurement": "TGI", "setting": "[36]", "value": "> 100", "unit": "µM"},
      {"measurement": "TGI", "setting": "[37]", "value": "> 100", "unit": "µM"},
      {"measurement": "TGI", "setting": "[38]", "value": "> 100", "unit": "µM"},
      {"measurement": "TGI", "setting": "[39]", "value": "> 100", "unit": "µM"},
      {"measurement": "TGI", "setting": "[40]", "value": "> 100", "unit": "µM"},
      {"measurement": "TGI", "setting": "[41]", "value": "> 100", "unit": "µM"},
      {"measurement": "TGI", "setting": "[42]", "value": "> 100", "unit": "µM"},
      {"measurement": "TGI", "setting": "[43]", "value": "> 100", "unit": "µM"},
      {"measurement": "TGI", "setting": "[44]", "value": 99.6, "unit": "µM"},
      {"measurement": "TGI", "setting": "[45]", "value": "> 100", "unit": "µM"},
      {"measurement": "TGI", "setting": "[46]", "value": "> 100", "unit": "µM"},
      {"measurement": "TGI", "setting": "[47]", "value": "> 100", "unit": "µM"},
      {"measurement": "TGI", "setting": "[48]", "value": "> 100", "unit": "µM"},
      {"measurement": "TGI", "setting": "[49]", "value": "> 100", "unit": "µM"},
      {"measurement": "TGI", "setting": "[50]", "value": "> 100", "unit": "µM"},
      {"measurement": "TGI", "setting": "[51]", "value": 44.5, "unit": "µM"},
      {"measurement": "TGI", "setting": "[52]", "value": "> 100", "unit": "µM"}
    ]}
  ]
}
